Reference: patent US10085993B2, “Tablet formulation of 2-fluoro-N-methyl-4-[ 7-( quinolin-6-ylmethyl) imidazo [1,2-B] [1,2,4] triazin-2-yl] benzamide” (Novartis AG, priority 2014, dated 2018)
Structures can show the parent of a compound that is named as a salt.

Experiments:
Gelling behavior = format: physicochemical; details: gelling can compromise tablet disintegration and dissolution rate
Description: 2-fluoro-N-methyl-4-[7-(quinolin-6-ylmethyl)imidazo[1,2-b][1,2,4]triazin-2-yl]benzamide dihydrochloride has a gelling behavior, mostly prominent at pHs above 3.5, which can compromise tablet disintegration and dissolution rate. Drug load and disintegrant type/levels can influence this behavior and need to be carefully selected to ensure adequate in vitro performance.

Bulk density = format: physicochemical
Description: 2-fluoro-N-methyl-4-[7-(quinolin-6-ylmethyl)imidazo[1,2-b][1,2,4]triazin-2-yl]benzamide dihydrochloride has a very low bulk density (0.085 g/mL), which justifies the need of a densification step prior tabletting. Wet granulation was identified as the most suitable technology for this compound.

[1] = Solubility at different pH

- pH at which gelling behavior is mostly prominent (Gelling behavior): above 3.5
- bulk density (Bulk density): 0.085 g/mL
- solubility ([1]; pH 1, simulated gastric fluid): 7200 µg/mL
- solubility ([1]; pH 6.8, aqueous buffer): 79.3 µg/mL
SMILES: CNC(=O)c1ccc(-c2cnc3ncc(Cc4ccc5ncccc5c4)n3n2)cc1F [2-fluoro-N-methyl-4-[7-(quinolin-6-ylmethyl)imidazo[1,2-b][1,2,4]triazin-2-yl]benzamide dihydrochloride]
